Entries after “also recorded” stand apart in the source; their conditions may differ. Residues, ends and D or L forms follow the SMILES beside them.
How the values were obtained:
DocSTm [1] = test: Differential scanning fluorimetry (thermal stabilisation of Doc); type: binding, S. Typhimurium; conditions: for melting temperature shift ΔTm: DSF, DocSTm 5 μM, analyte 50 μM, Tm with analyte minus Tm of free DocSTm (42.9 ± 0.9 °C), SYPRO Orange, 20 mM K2HPO4, 50 mM (NH4)2SO4, pH 8.0, triplicate; for Average Tm / Tm: DocSTm 5 µM + 50 µM binder; for Average Tm: average of 3 replicates
Procedure: Experiments were performed in a Mx3005P qPCR System (Agilent) collecting fluorescence data with a temperature ramp of 25 to 95 °C. Samples were prepared in a buffer containing 20 mM K2HPO4 and 50 mM (NH4)2SO4 at pH 8.0. The SYPRO Orange dye (Sigma-Aldrich, 5000× stock in DMSO) was used to monitor protein denaturation and was diluted to a final concentration of 3×. For binding experiments, the final concentration of Doc was 5 μM. Each condition was performed in triplicate (ESI section 4) and the melting curves were plotted using GraphPad Prism 5 (GraphPad Software, U.S.A.). The melting temperatures were obtained by fitting the sigmoidal section of the curves to a Boltzmann sigmoid function.

DocSTm [2] = test: Surface plasmon resonance binding to immobilised Doc; design: species or system S. Typhimurium; conditions: for koff × 10^-6 / kon × 10^6: 1:1 kinetic fit, mean ± SD of at least 3 replicates; for kon × 10^6: single-cycle kinetics (multicycle for PhdSTm1-73); for Half-life of the complex: t1/2 = ln2 / koff
Procedure: Experiments were performed in a Biacore S200 (Cytiva) with a Series S sensor chip NTA (Cytiva). The data was analyzed using the Biacore Evaluation Software (Cytiva) and curves were plotted using GraphPad Prism 5 (GraphPad Software, U.S.A.). All experiments were performed at 22 °C with a running buffer containing 10 mM HEPES, 500 mM NaCl, 50 μM EDTA, and 0.005% (v/v) TWEEN 20 at pH 8.0. The surface was conditioned following the standard manufacturer’s guidelines and protein immobilization was performed with a 30–60 s pulse (flow rate of 5 μL/min) of Doc (150 nM) in running buffer. […] Surface regeneration was performed with a 1 min pulse of 0.5 M imidazole followed by a 1 min pulse of 0.35 M of EDTA at pH 8.0.
Binding to Doc was performed using a multicycle kinetics (MCK) setup for peptides 7, 10, and 14, while the remaining samples were tested using a single-cycle kinetics (SCK) setup. The surface was fully regenerated in between each analyte in both cases. In the MCK experiments, increasing concentrations of each analyte were injected with an 80 s pulse (30 μL/min) and dissociation times varied depending on the time required to fully dissociate the complex. The double-referenced sensorgrams (raw data subtracted from a blank injection and reference surface responses) were analyzed using a kinetic and/or a steady-state 1:1 binding model. In the SCK experiments, typically six concentrations of each analyte were sequentially injected with 80 s pulses (30 μL/min), and dissociation times varied depending on the time required to dissociate at least 5% of the complex. The double-referenced sensorgrams were fitted using a kinetic 1:1 binding model.
At least three independent replicates were measured for each analyte (ESI section 5). When a steady-state fit was applied, the reported Kd and its uncertainty correspond, respectively, to the average and standard deviations of the Kd obtained in each measurement. When a kinetic fit was applied, the reported rate constants (kon and koff) and their uncertainties correspond, respectively, to the average and standard deviations of the rate constants obtained in each measurement. In this case, reported Kd were calculated using the equation below, and the standard deviation of the rate constants was propagated. [drawing 1]

DocSTm [3] = test: Dot blot phosphorylation assay (EF-Tu phosphorylation by Doc); type: biochemical, S. Typhimurium; conditions: α-pThr, DocSTm 1 μM, EF-TuSTm 3 μM, ATP 1 mM, inhibitor 10 μM to 5 nM (3-fold dilutions), 16 h at RT
Procedure: Samples were prepared to a final volume of 10 μL. […] Samples were incubated for 16 h at RT and subsequently spotted on a nitrocellulose membrane. Phosphorylated EF-Tu was detected by immunodecoration using a rabbit monoclonal antiphosphothreonine antibody (Abcam, ab218195) at 1:2000 dilution (1 h at 4 °C), followed by incubation with a goat antirabbit IgG (H+L) HRP conjugate antibody (Advansta) at 1:10 000 dilution (1 h at RT). Chemiluminescence was developed using the HRP Luminata kit (Merck, WBLUR0100) and captured by an ImageQuant LAS4000 Western blot imaging system (Cytiva).

[4] = SPR, kinetic fit, KD calculated from mean koff and kon, SD propagated, 22 °C, pH 8.0

| SMILES | melting temperature shift ΔTm (DocSTm [1]) [°C] | Average Tm (DocSTm [1]) [°C] | Tm (DocSTm [1]; replicate 1) [°C] | Tm (DocSTm [1]; replicate 2) [°C] | Tm (DocSTm [1]; replicate 3) [°C] | Kd (DocSTm [2]; SPR kinetic fit, replicate 1) [pM] | Kd (DocSTm [2]; SPR kinetic fit, replicate 2) [pM] | Kd (DocSTm [2]; SPR kinetic fit, replicate 3) [pM] | koff × 10^-6 (DocSTm [2]; SPR, 22 °C, pH 8.0) | kon × 10^6 (DocSTm [2]; SPR, 22 °C, pH 8.0) | Kd (DocSTm [2]; [4]) [pM] | Half-life of the complex (DocSTm [2]) [min] | inhibition of EF-TuSTm phosphorylation by DocSTm (in words) (DocSTm [3]) | Kd (DocSTm [2]; SPR kinetic fit, replicate 4) [pM] |
| --- | --- | --- | --- | --- | --- | --- | --- | --- | --- | --- | --- | --- | --- | --- |
| CC[C@H](C)[C@H](NC(=O)[C@H](C)NC(=O)[C@H](C)NC(=O)[C@H](Cc1ccccc1)NC(=O)[C@H](CCC(=O)O)NC(=O)[C@H](CC(=O)O)NC(=O)[C@H](CC(=O)O)NC(=O)[C@H](CCSC)NC(=O)[C@H](Cc1c[nH]c2ccccc12)NC(C)=O)C(=O)N[C@@H](CCSC)C(=O)N[C@@H](C)C(=O)N[C@H](C(=O)N[C@@H](Cc1c[nH]cn1)C(=O)NCC(=O)N[C@@H](CC(N)=O)C(=O)N[C@@H](C)C(=O)N[C@@H](CC(C)C)C(=O)N[C@@H](CCCNC(=N)N)C(=O)N[C@@H](CCC(=O)O)C(=O)N[C@@H](CC(C)C)C(=O)N[C@@H](C)C(=O)N[C@@H](CC(=O)O)C(=O)N[C@@H](CCCCN)C(=O)O)C(C)C [peptide 13] (Ac-WMDDEFAAIMAVHGNALRELADK-OH; C-terminus assumed) | 27.7 ± 0.9 | 70.6 ± 0.2 | 70.8 | 70.4 | 70.6 | 47.5 | 45.1 | 35.2 | 112 ± 38 ×10^-6 s-1 | 2.705 ± 1.041 ×10^6 M-1 s-1 | 42 ± 21 | 102 ± 36 | inhibited DocSTm at similar concentrations to peptide 1 |  |
| CC[C@H](C)[C@H](NC(=O)[C@H](C)NC(=O)[C@H](C)NC(=O)[C@H](Cc1ccccc1)NC(=O)[C@H](CCC(=O)O)NC(=O)[C@H](CC(=O)O)NC(=O)[C@H](CC(=O)O)NC(=O)[C@H](CCSC)NC(=O)[C@H](Cc1c[nH]c2ccccc12)NC(C)=O)C(=O)N[C@@H](CCSC)C(=O)N[C@@H](C)C(=O)N[C@H](C(=O)N[C@@H](Cc1c[nH]cn1)C(=O)NCC(=O)N[C@@H](CC(N)=O)C(=O)N[C@@H](CCC(=O)O)C(=O)N[C@@H](CC(C)C)C(=O)N[C@@H](CCCNC(=N)N)C(=O)N[C@@H](CCC(=O)O)C(=O)N[C@@H](CC(C)C)C(=O)N[C@@H](C)C(=O)N[C@@H](CC(=O)O)C(=O)N[C@@H](C)C(=O)O)C(C)C [peptide 19] (Ac-WMDDEFAAIMAVHGNELRELADA-OH; C-terminus assumed) | 25.2 ± 1.1 | 68.0 ± 0.6 | 68.8 | 67.6 | 67.7 | 101 | 63.4 | 100 | 126 ± 11 ×10^-6 s-1 | 1.441 ± 0.462 ×10^6 M-1 s-1 | 87 ± 29 | 90 ± 6 | inhibited DocSTm at similar concentrations to peptide 1 | 103 |
| CC[C@H](C)[C@H](NC(=O)[C@H](C)NC(=O)[C@H](C)NC(=O)[C@H](Cc1ccccc1)NC(=O)[C@H](CCC(=O)O)NC(=O)[C@H](CC(=O)O)NC(=O)[C@H](CC(=O)O)NC(=O)[C@H](CCSC)NC(=O)[C@H](Cc1c[nH]c2ccccc12)NC(C)=O)C(=O)N[C@@H](CCSC)C(=O)N[C@@H](C)C(=O)N[C@H](C(=O)N[C@@H](Cc1c[nH]cn1)C(=O)NCC(=O)N[C@@H](CC(N)=O)C(=O)N[C@@H](CCC(=O)O)C(=O)N[C@@H](CC(C)C)C(=O)N[C@@H](CCCNC(=N)N)C(=O)N[C@@H](CCC(=O)O)C(=O)N[C@@H](CC(C)C)C(=O)N[C@@H](C)C(=O)O)C(C)C [peptide 20] (Ac-WMDDEFAAIMAVHGNELRELA-OH; N-terminus and C-terminus assumed) | 25.6 ± 0.9 | 68.5 ± 0.1 | 68.5 | 68.4 | 68.5 | 447 | 414 | 424 | 393 ± 18 ×10^-6 s-1 | 0.917 ± 0.023 ×10^6 M-1 s-1 | 428 ± 23 | 29.4 ± 1.2 | inhibition of DocSTm comparable to 1 |  |
| CC[C@H](C)[C@H](NC(=O)[C@H](C)NC(=O)[C@H](C)NC(=O)[C@H](Cc1ccccc1)NC(=O)[C@H](CCC(=O)O)NC(=O)[C@H](Cc1c[nH]c2ccccc12)NC(C)=O)C(=O)N[C@@H](CCSC)C(=O)N[C@@H](C)C(=O)N[C@H](C(=O)N[C@@H](Cc1c[nH]cn1)C(=O)NCC(=O)N[C@@H](CC(N)=O)C(=O)N[C@@H](CCC(=O)O)C(=O)N[C@@H](CC(C)C)C(=O)N[C@@H](CCCNC(=N)N)C(=O)N[C@@H](CCC(=O)O)C(=O)N[C@@H](CC(C)C)C(=O)N[C@@H](C)C(=O)N[C@@H](CC(=O)O)C(=O)N[C@@H](CCCCN)C(=O)O)C(C)C [peptide 21] (Ac-WEFAAIMAVHGNELRELADK-OH; N-terminus and C-terminus assumed) | 19.3 ± 0.9 | 62.2 ± 0.2 | 62.3 | 62.0 | 62.4 | 410 | 412 | 365 | 496 ± 58 ×10^-6 s-1 | 1.252 ± 0.080 ×10^6 M-1 s-1 | 396 ± 52 | 23.4 ± 3 | inhibition of DocSTm comparable to 1 |  |
| CC[C@H](C)[C@H](NC(=O)[C@H](C)NC(=O)[C@H](C)NC(=O)[C@H](Cc1ccccc1)NC(=O)[C@H](CCC(=O)O)NC(=O)[C@H](Cc1c[nH]c2ccccc12)NC(C)=O)C(=O)N[C@@H](CCSC)C(=O)N[C@@H](C)C(=O)N[C@H](C(=O)N[C@@H](Cc1c[nH]cn1)C(=O)NCC(=O)N[C@@H](CC(N)=O)C(=O)N[C@@H](CCC(=O)O)C(=O)N[C@@H](CC(C)C)C(=O)N[C@@H](CCCNC(=N)N)C(=O)N[C@@H](CCC(=O)O)C(=O)N[C@@H](CC(C)C)C(=O)N[C@@H](C)C(=O)O)C(C)C [peptide 22] (Ac-WEFAAIMAVHGNELRELA-OH; N-terminus and C-terminus assumed) | 16.3 ± 0.9 | 59.2 ± 0.3 | 58.89 | 59.16 | 59.42 | 342 | 336 | 365 | 503 ± 16 ×10^-6 s-1 | 1.449 ± 0.085 ×10^6 M-1 s-1 |  | 22.8 ± 0.6 | severe loss of inhibitory activity; also recorded: poor DocSTm inhibitors |  |
